Results as given in PubChem BioAssay AID248 (DTP/NCI, 2004).
Several values for one entry are separate records, joined by “and”; a condition that tells them apart may be missing. Identical values can stand only once. Toxic doses and inconclusive results are not listed. Cut-off read from the data, not from the text of the source: active = T/C of 150% or more; inactive = T/C below 125%.

System: L1210 leukemia ip in BDF1 mice, survival T/C
Test: NCI In Vivo Anticancer Drug Screen. Data for tumor model L1210 Leukemia (intraperitoneal) in B6D2F1 (BDF1) mice
Conditions: endpoint: mean survival time, higher = longer survival
Outline: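 Each compound was tested against a transplantable tumor grown in mice. The endpoint was survival, with treated animals benchmarked against vehicle controls as a simple ratio.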

[1] = dose: 100.0 mg/kg/injection, schedule: Q01DX009 (ip), vehicle: saline
[2] = dose: 200.0 mg/kg/injection, schedule: Q01DX009 (ip), vehicle: saline
[3] = dose: 400.0 mg/kg/injection, schedule: Q01DX009 (ip), vehicle: saline

Measured: T/C

Cc1ccc(C(=O)CCCc2ccccn2)cc1
inactive: dose: 222.0 mg/kg/injection, schedule: Q01DX Z (ip), vehicle: methylcellulose (MC) 98 % of control | dose: 333.0 mg/kg/injection, schedule: Q01DX Z (ip), vehicle: methylcellulose (MC) 100 % of control | dose: 500.0 mg/kg/injection, schedule: Q01DX Z (ip), vehicle: methylcellulose (MC) 87 % of control

Cc1ccc(C)c(NC(=O)OCc2ccco2)c1
inactive: dose: 100.0 mg/kg/injection, schedule: Q01DX001 (ip), vehicle: saline with Tween-80 97 % of control | dose: 100.0 mg/kg/injection, schedule: Q01DX009 (ip), vehicle: saline with Tween-80 107 % of control and 89 % of control | dose: 100.0 mg/kg/injection, schedule: Q04DX002 (ip), vehicle: saline with Tween-80 93 % of control and 100 % of control | dose: 100.0 mg/kg/injection, schedule: Q04DX003 (ip), vehicle: saline with Tween-80 105 % of control | dose: 200.0 mg/kg/injection, schedule: Q01DX001 (ip), vehicle: saline with Tween-80 95 % of control | dose: 200.0 mg/kg/injection, schedule: Q01DX009 (ip), vehicle: saline with Tween-80 100 % of control and 89 % of control | dose: 200.0 mg/kg/injection, schedule: Q04DX002 (ip), vehicle: saline with Tween-80 96 % of control and 98 % of control | dose: 200.0 mg/kg/injection, schedule: Q04DX003 (ip), vehicle: saline with Tween-80 93 % of control | dose: 400.0 mg/kg/injection, schedule: Q01DX001 (ip), vehicle: saline with Tween-80 95 % of control | dose: 400.0 mg/kg/injection, schedule: Q01DX009 (ip), vehicle: saline with Tween-80 100 % of control and 89 % of control | dose: 400.0 mg/kg/injection, schedule: Q04DX002 (ip), vehicle: saline with Tween-80 93 % of control and 102 % of control | dose: 400.0 mg/kg/injection, schedule: Q04DX003 (ip), vehicle: saline with Tween-80 93 % of control

CC(C)(C)OC(=O)C(C1NC2C(=O)OCC2(CO)S1)N1C(=O)c2ccccc2C1=O (configuration not stated)
inactive: dose: 100.0 mg/kg/injection, schedule: Q04DX003 (ip), vehicle: Klucel (hydroxypropylcellulose) (HPC) 95 % of control | dose: 200.0 mg/kg/injection, schedule: Q04DX003 (ip), vehicle: Klucel (hydroxypropylcellulose) (HPC) 92 % of control | dose: 400.0 mg/kg/injection, schedule: Q04DX003 (ip), vehicle: Klucel (hydroxypropylcellulose) (HPC) 101 % of control

CC(=O)OCCOC(=O)Nc1cccc2ccccc12
inactive: dose: 100.0 mg/kg/injection, schedule: Q04DX002 (ip), vehicle: Klucel (hydroxypropylcellulose) (HPC) 100 % of control | dose: 200.0 mg/kg/injection, schedule: Q04DX002 (ip), vehicle: Klucel (hydroxypropylcellulose) (HPC) 100 % of control | dose: 400.0 mg/kg/injection, schedule: Q04DX002 (ip), vehicle: Klucel (hydroxypropylcellulose) (HPC) 97 % of control

CC(C)(SCC(N)C(=O)O)C(N)C(=O)O (configuration not stated)
inactive: dose: 100.0 mg/kg/injection, schedule: Q01DX001 (ip), vehicle: saline 95 % of control | [1] 103 % of control | dose: 200.0 mg/kg/injection, schedule: Q01DX001 (ip), vehicle: saline 90 % of control | [2] 94 % of control | dose: 400.0 mg/kg/injection, schedule: Q01DX001 (ip), vehicle: saline 87 % of control | [3] 102 % of control

CCN1/C(=C/C(C)=C/c2[se]c3ccccc3[n+]2CC)[Se]c2ccc(OC)cc21
inactive: dose: 5.0 mg/kg/injection, schedule: Q01DX001 (ip), vehicle: saline 105 % of control | dose: 10.0 mg/kg/injection, schedule: Q01DX001 (ip), vehicle: saline 100 % of control | dose: 20.0 mg/kg/injection, schedule: Q01DX001 (ip), vehicle: saline 97 % of control | dose: 40.0 mg/kg/injection, schedule: Q01DX001 (ip), vehicle: saline 100 % of control

Nc1ccc(C(=O)O)c([N+](=O)[O-])c1
inactive: [1] 102 % of control | dose: 100.0 mg/kg/injection, schedule: Q04DX003 (ip), vehicle: saline 98 % of control | [2] 100 % of control | dose: 200.0 mg/kg/injection, schedule: Q04DX003 (ip), vehicle: saline 93 % of control | [3] 100 % of control | dose: 400.0 mg/kg/injection, schedule: Q04DX003 (ip), vehicle: saline 94 % of control

CN=C(c1ccc(NC(=O)c2ccc(C(=O)Nc3ccc(C(=NC)N(C)c4ccccc4)cc3)cc2)cc1)N(C)c1ccccc1
inactive: dose: 0.94 mg/kg/injection, schedule: Q01DX Z (ip), vehicle: saline 106 % of control | dose: 1.88 mg/kg/injection, schedule: Q01DX Z (ip), vehicle: saline 104 % of control | dose: 3.75 mg/kg/injection, schedule: Q01DX Z (ip), vehicle: saline 90 % of control

CC(C)(C)C1CCC(O)C(Cl)C1 (configuration not stated)
inactive: [1] 100 % of control | [2] 98 % of control
